These results are taken from patent publication US9249127B2 (Orion Corporation, priority 2012, dated 2016).

For this assay, the target named is T1, alpha2A receptor (Homo sapiens, UniProt P08913).
T1 sequence (P08913 1-465): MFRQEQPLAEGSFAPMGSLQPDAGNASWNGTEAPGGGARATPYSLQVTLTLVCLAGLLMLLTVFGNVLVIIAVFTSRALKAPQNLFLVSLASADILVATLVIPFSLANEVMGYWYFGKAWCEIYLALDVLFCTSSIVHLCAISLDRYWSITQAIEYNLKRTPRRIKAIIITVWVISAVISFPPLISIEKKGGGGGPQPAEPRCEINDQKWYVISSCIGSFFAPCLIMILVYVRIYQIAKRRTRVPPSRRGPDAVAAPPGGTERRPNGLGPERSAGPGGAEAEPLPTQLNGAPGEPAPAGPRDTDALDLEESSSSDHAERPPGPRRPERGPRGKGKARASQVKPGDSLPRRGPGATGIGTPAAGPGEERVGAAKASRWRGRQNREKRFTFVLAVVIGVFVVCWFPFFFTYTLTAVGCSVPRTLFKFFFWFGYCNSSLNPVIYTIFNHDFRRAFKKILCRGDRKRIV
Nature of the assay: Alpha2A agonistic activity in vitro. It is filed as cell-based.

The mark [1] stands for this setting: Alpha2A Agonism pEC50, in vitro.
Setting [2] is: in vitro, read-out: Alpha2A Agonism pEC50 (converted).

Where two headings read alike, the source gives them in different places.

Consider `C=CCc1cccc2c1CCOC2C1=NCCN1` (centres unmarked) [Example 6, 2-(5-Allylisochroman-1-yl)-4,5-dihydro-1H-imidazole], for which the EC50 under setting [1] is 39.8 nM. The “Alpha2A Intrinsic Activity” value (in vitro) worked out at 0.53.
Compound `CCc1cccc2c1C[C@@H](C)OC2C1=NCCN1` (stereo partly drawn) [Example 45, 2-((3R)-5-ethyl-3-methylisochroman-1-yl)-4,5-dihydro-1H-imidazole] showed an EC50 under setting [1] of 6.31 nM. Moreover, where the note is “in vitro”, the “Alpha2A Intrinsic Activity” value amounted to 0.73.
As for `Cc1cccc2c1CCOC2(C)C1=NCCN1` (single isomer, unassigned) [Example 22, 2-(1,5-Dimethylisochroman-1-yl)-4,5-dihydro-1H-imidazole], under “in vitro”, the “Alpha2A Intrinsic Activity” value came out at 0.33. Moreover, the EC50 under setting [2] is 1000 nM.
Turning to `Cc1cccc2c1CCSC2C1=NCCN1` (centres unmarked) [Example 64, 2-(5-Methylisothiochroman-1-yl)-4,5-dihydro-1H-imidazole], under setting [1], the EC50 was 79.4 nM. For the same compound, the “Alpha2A Intrinsic Activity” value (in vitro) is recorded as 0.59.
Regarding `COc1cccc2c1CCOC2C1=NCCN1` (single isomer, unassigned) [Example 97, 2-(5-methoxyoisochroman-1-yl)-4,5-dihydro-1H-Imidazole], for the setting “in vitro”, the “Alpha2A Intrinsic Activity” value worked out at 0.69. Besides, the EC50 under setting [2] is 15.8 nM.
Regarding `C[C@H]1Cc2c(Br)cccc2C(C2=NCCN2)O1` (stereo partly drawn) [Example 35, 2-((3S)-5-bromo-3-methylisochroman-1-yl)-4,5-dihydro-1H-imidazole], the EC50 under setting [1] is 15.8 nM. Further, for the setting “in vitro”, the “Alpha2A Intrinsic Activity” value is recorded as 0.80.
Compound `CCc1cccc2c1CCOC2C1=NCCN1` (single isomer, unassigned) [Example 96] gave an EC50 under setting [1] of 20 nM. Moreover, the “Alpha2A Intrinsic Activity” value (in vitro) was determined as 0.66.
As for `FC(F)(F)CC1Cc2c(Br)cccc2C(C2=NCCN2)O1` (single isomer, unassigned) [Example 83], the “Alpha2A Intrinsic Activity” value (in vitro) turned out to be 0.41. Moreover, the EC50 under setting [2] was 126 nM.
The corresponding values for `N#Cc1cccc2c1CCOC2C1=NCCN1` (centres unmarked) [Example 5, 1-(4,5-Dihydro-1H-imidazol-2-yl)isochroman-5-carbonitrile] are 0.59 and 1260 nM.
Compound `Clc1cccc2c1CCOC2C1=NCCN1` (centres unmarked) [Example 4, 2-(5-Chloroisochroman-1-yl)-4,5-dihydro-1H-imidazole] showed an EC50 under setting [1] of 7.94 nM. Also, where the note is “in vitro”, the “Alpha2A Intrinsic Activity” value came to 0.85.
Turning to `CCC1Cc2c(Br)cc(Br)cc2C(C2=NCCN2)O1` (centres unmarked) [Example 67, 2-(5,7-Dibromo-3-ethylisochroman-1-yl)-4,5-dihydro-1H-imidazole], the “Alpha2A Intrinsic Activity” value (in vitro) is reported as 0.42. Besides, the EC50 under setting [2] was 1000 nM.
On to `Clc1cccc2c1CCOC2C1=NCCN1` (single isomer, unassigned) [Example 100, 2-(5-chloroisochroman-1-yl)-4,5-dihydro-1H-imidazole], for which, under setting [1], the EC50 was 3.98 nM. Further, the “Alpha2A Intrinsic Activity” value (in vitro) was found to be 0.91.
For `FC(F)Oc1cccc2c1CCOC2C1=NCCN1` (centres unmarked) [Example 90, 2-(5-(Difluoromethoxy)isochroman-1-yl)-4,5-dihydro-1H-imidazole], in that order: 39.8 nM and 0.66.
For `C#Cc1cccc2c1CCOC2C1=NCCN1` (centres unmarked) [Example 15, 2-(5-Ethynylisochroman-1-yl)-4,5-dihydro-1H-imidazole], in that order: 15.8 nM and 0.88.
On to `C[C@@H]1Cc2c(OC(F)(F)F)cccc2C(C2=NCCN2)O1` (stereo partly drawn) [Example 49, 2-((3R)-3-methyl-5-(trifluoromethoxy)isochroman-1-yl)-4,5-dihydro-1H-imidazole], for which the “Alpha2A Intrinsic Activity” value (in vitro) is recorded as 0.35. For the same compound, under setting [2], the EC50 is 126 nM.
In the case of `CCC1Cc2c(Br)cccc2C(C2=NCCN2)O1` (single isomer, unassigned) [Example 94, 2-(5-bromo-3-ethylisochroman-1-yl)-4,5-dihydro-1H-imidazole], the EC50 under setting [1] was 25.1 nM. In addition, the “Alpha2A Intrinsic Activity” value (in vitro) amounted to 0.55.
The compound `C=Cc1cccc2c1CCOC2C1=NCCN1` (centres unmarked) [Example 7, 2-(5-Vinylisochroman-1-yl)-4,5-dihydro-1H-imidazole] showed an EC50 under setting [1] of 39.8 nM. Besides, where the note is “in vitro”, the “Alpha2A Intrinsic Activity” value came to 0.81.
The corresponding values for `CC[C@@H]1Cc2c(OC)cccc2C(C2=NCCN2)O1` (stereo partly drawn) [Example 91, 2-((3R)-3-ethyl-5-methoxyisochroman-1-yl)-4,5-dihydro-1H-imidazole] are 39.8 nM and 0.51.
Consider `CC1(C2=NCCN2)OCCc2c(Br)cccc21` (single isomer, unassigned) [Example 106, 2-(5-bromo-1-methylisochroman-1-yl)-4,5-dihydro-1H-imidazole], for which, for the setting “in vitro”, the “Alpha2A Intrinsic Activity” value is recorded as 0.64. In addition, the EC50 under setting [2] was 158 nM.
`Cc1cccc2c1CCOC2(C)C1=NCCN1` (single isomer, unassigned) [Example 21, 2-(1,5-Dimethylisochroman-1-yl)-4,5-dihydro-1H-imidazole]: the EC50 under setting [1] was 50.1 nM. Further, the “Alpha2A Intrinsic Activity” value (in vitro) is 0.73.
For `CCCC1Cc2c(Br)cccc2C(C2=NCCN2)O1` (single isomer, unassigned) [Example 88, 2-((3)-5-bromo-3-propylisochroman-1-yl)-4,5-dihydro-1H-imidazole], in that order: 50.1 nM and 0.50.
As for `FC(F)(F)CC1Cc2c(Br)cccc2C(C2=NCCN2)O1` (single isomer, unassigned) [Example 68], for the setting “in vitro”, the “Alpha2A Intrinsic Activity” value is reported as 0.25.
As to `c1cc(-c2ccoc2)c2c(c1)C(C1=NCCN1)OCC2` (centres unmarked) [Example 54, 2-(5-(Furan-3-yl)isochroman-1-yl)-4,5-dihydro-1H-imidazole], the “Alpha2A Intrinsic Activity” value (in vitro) is 0.16. Also, under setting [2], the EC50 is 1000 nM.
Turning to `C[C@@H]1Cc2c(OC(F)F)cccc2C(C2=NCCN2)O1` (stereo partly drawn) [Example 93, 2-((3R)-5-(difluoromethoxy)-3-methylisochroman-1-yl)-4,5-dihydro-1H-imidazole], the EC50 under setting [1] is 31.6 nM. Moreover, the “Alpha2A Intrinsic Activity” value (in vitro) turned out to be 0.64.
In the case of `Cc1cccc2c1C[C@@H](C)OC2(C)C1=NCCN1` (stereo partly drawn) [Example 23, 2-((3R)-1,3,5-trimethylisochroman-1-yl)-4,5-dihydro-1H-imidazole], the “Alpha2A Intrinsic Activity” value (in vitro) is on record as 0.68. Moreover, the EC50 under setting [2] was 316 nM.
On to `COc1cc(C)c2c(c1)C(C1=NCCN1)OC(C)C2` (centres unmarked) [Example 85, 2-(7-Methoxy-3,5-dimethylisochroman-1-yl)-4,5-dihydro-1H-imidazole], for which the “Alpha2A Intrinsic Activity” value (in vitro) is reported as 0.22. Besides, under setting [2], the EC50 is 1000 nM.
For `Cc1cc(O)cc2c1CCOC2C1=NCCN1` (centres unmarked) [Example 75, 1-(4,5-Dihydro-1H-imidazol-2-yl)-5-methylisochroman-7-ol], in that order: 0.64 and 631 nM.
For the compound `C[C@@H]1Cc2c(Cl)cccc2C(C2=NCCN2)O1` (stereo partly drawn) [Example 33, 2-((3R)-5-chloro-3-methylisochroman-1-yl)-4,5-dihydro-1H-imidazole], under setting [1], the EC50 is 1.58 nM. In addition, the “Alpha2A Intrinsic Activity” value (in vitro) worked out at 0.93.
Turning to `COc1cccc2c1C[C@H](C)OC2C1=NCCN1` (stereo partly drawn) [Example 53, 2-((3S)-5-methoxy-3-methylisochroman-1-yl)-4,5-dihydro-1H-imidazole], where the note is “in vitro”, the “Alpha2A Intrinsic Activity” value is given as 0.72. Under setting [2], the EC50 was 316 nM.
Regarding `Cc1cc(Br)cc2c1CCOC2C1=NCCN1` (centres unmarked) [Example 60, 2-(7-Bromo-5-methylisochroman-1-yl)-4,5-dihydro-1H-imidazole], the “Alpha2A Intrinsic Activity” value (in vitro) was determined as 0.66. For the same compound, the EC50 under setting [2] was 126 nM.
Turning to `Brc1cccc2c1CCSC2C1=NCCN1` (centres unmarked) [Example 65, 2-(5-Bromoisothiochroman-1-yl)-4,5-dihydro-1H-imidazole], the EC50 under setting [1] is 79.4 nM. For the same compound, the “Alpha2A Intrinsic Activity” value (in vitro) is 0.56.
For `CCC1OC(C2=NCCN2)c2cccc3cccc1c23` (centres unmarked) [Example 105, 2-(3-Ethyl-1,3-dihydrobenzo[de]isochromen-1-yl)-4,5-dihydro-1H-imidazole], in that order: 39.8 nM and 0.66.
Regarding “2-(5-methoxy-3-(2,2,2-trifluoroethyl)methyl-isochroman-1-yl)-4,5-dihydro-1H-imidazole [Example 77]”, under “in vitro”, the “Alpha2A Agonism pEC50” value is 6.3 and the “Alpha2A Intrinsic Activity” value came to 0.16.
`OCc1cccc2c1CCOC2C1=NCCN1` (centres unmarked) [Example 10, (1-(4,5-Dihydro-1H-imidazol-2-yl)isochroman-5-yl)methanol]: the EC50 under setting [1] is 20 nM. Where the note is “in vitro”, the “Alpha2A Intrinsic Activity” value is reported as 0.90.
For `CCC1Cc2c(C)cccc2C(C2=NCCN2)O1` (centres unmarked) [Example 27, 2-(3-Ethyl-5-methylisochroman-1-yl)-4,5-dihydro-1H-imidazole], in that order: 25.1 nM and 0.69.
For `COc1cccc2c1CCOC2(C)C1=NCCN1` (centres unmarked) [Example 69, 2-(5-Methoxy-1-methylisochroman-1-yl)-4,5-dihydro-1H-imidazole], the “Alpha2A Intrinsic Activity” value (in vitro) is 0.19.
Take `COc1cccc2c1C[C@@H](C)OC2(C)C1=NCCN1` (stereo partly drawn) [Example 71, 2-((3R)-5-methoxy-1,3-dimethylisochroman-1-yl)-4,5-dihydro-1H-imidazole]: for the setting “in vitro”, the “Alpha2A Intrinsic Activity” value turned out to be 0.33. For the same compound, the EC50 under setting [2] was 2000 nM.
`FC(F)c1cccc2c1CCOC2C1=NCCN1` (centres unmarked) [Example 99, 2-(5-(Difluoromethyl)isochroman-1-yl)-4,5-dihydro-1H-imidazole]: under setting [1], the EC50 is 12.6 nM. For the same compound, for the setting “in vitro”, the “Alpha2A Intrinsic Activity” value was 0.73.
